We go through 5 compounds from US20250249144A1, “PEPTIDE AMPHIPHILE SUPRAMOLECULAR POLYMERS FOR SPRAY DELIVERY AND TISSUE REGENERATION APPLICATIONS” (The University of Southern Mississippi, priority 2024, published 2025).

Non-standard residues stand in square brackets, D forms with d. Residues, ends and D or L forms follow the SMILES beside them. ξ: configuration not given here. *: point of attachment. Palmitoyl = CCCCCCCCCCCCCCCC(=O)*; aThr = C[C@H](O)[C@H](N)C(=O)O; ξV = CC(C)C(N)C(=O)O

In one test the test system is diabetic wound. The following applies: diabetic wound model; cited from earlier work.
The subject of the next test is ERK receptor. Conditions: cited from earlier work.
Test [1] relates to full thickness injury, atopic dermatitis. The following applies: rodent models of full thickness injury and atopic dermatitis; cited from earlier work.
Another test has as its system dermal wound. Conditions: rat full thickness excision model; cited from earlier work.
The subject of a further test is full thickness burn. The test can be described thus: burn injury murine model, wound closure. The test is classed as in vivo. Conditions: mouse, 3 days and 7 days post treatment, one-way ANOVA, p<0.05. The method, then:
The benefits of, and potential for, regeneration of the biocompatible and bioactive PA nanofiber scaffold was assessed in a mouse burn injury model. […] (See FIGS. 5 and 6). A 1×1 cm diameter steel billet was heated to 100° C. in a dry heat bath. Mice were anesthetized using isoflurane throughout the procedures. After successful anesthesia had been achieved, mice were clipped circumferentially on their trunks/dorsum and prepped with betadine. Burn injury was accomplished by applying the previously heated billet to the dorsum of each animal for 10 seconds. A total of 6 applications of the rod (3 on each side of the midline back) produced an approx. 20% total body surface area (TBSA) full thickness burn. Mice were further wrapped with a self-adherent wrap to protect the wound. Mice were resuscitated using 1.0 mL i.p. saline (which included 0.03 mL Buprenex SR and 0.06 mL Meloxicam SR) and placed onto warming pads until full recovery from anesthesia was determined. 8 hours post-burn, they received a 2nd bolus of 1 mL i.p. fluid. […] Healing was assessed following a single application. […] Quantification of wound healing was accomplished by digital image planimetry with ImageJ at 3 days, and 7 days post treatment, with representative images of wound healing at day 15 post treatment also being provided.

In the next test the test system is erythropoiesis. Conditions: mice; cited from earlier work.
In a further test the target is T1, receptor of EPO (Homo sapiens, UniProt P19235).
T1 sequence (P19235 25-508): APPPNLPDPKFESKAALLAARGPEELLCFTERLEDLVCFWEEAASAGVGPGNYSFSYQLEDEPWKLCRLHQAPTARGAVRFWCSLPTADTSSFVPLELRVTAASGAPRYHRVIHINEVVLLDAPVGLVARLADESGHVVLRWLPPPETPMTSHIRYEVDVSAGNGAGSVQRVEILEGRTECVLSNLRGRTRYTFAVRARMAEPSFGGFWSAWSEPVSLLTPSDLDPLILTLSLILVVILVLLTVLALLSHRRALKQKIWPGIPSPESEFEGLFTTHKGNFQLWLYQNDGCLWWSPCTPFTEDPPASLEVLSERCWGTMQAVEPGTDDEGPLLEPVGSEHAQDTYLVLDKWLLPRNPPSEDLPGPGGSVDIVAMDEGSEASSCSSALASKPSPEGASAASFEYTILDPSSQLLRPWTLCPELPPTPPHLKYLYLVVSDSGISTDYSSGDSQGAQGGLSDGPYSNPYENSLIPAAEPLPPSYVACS
Conditions: cyclized through the cysteine residues; cited from earlier work.

Regarding `N=C(N)NCCC[C@H](NC(=O)[C@@H](Cc1cnc[nH]1)NC(=O)[C@@H](N)CCC(N)=O)C(=O)N[C@H](CCC(=O)O)C(=O)N[C@@H](CC(=O)O)C(=O)NCC(=O)N[C@@H](CO)C(=O)O` [QHREDGS, QHREDGS (SEQ ID NO.4)], the wound closure entry in the test with diabetic wound is “significantly accelerate wound closure”.

For `C[C@H](O)[C@H](NC(=O)[C@@H](CCCNC(=N)N)NC(=O)CNC(=O)[C@@H](CCC(=O)O)NC(=O)[C@@H](N)CCCNC(=N)N)C(=O)O` [REGRT, REGRT (SEQ ID NO.2)] (H-R[dE]G[dR][aThr]-OH), the “phosphorylation of the ERK receptor” value with ERK receptor is recorded as “effective phosphorylation of the ERK receptor”. Moreover, the wound healing entry in test [1] was “promotion of wound healing”.

Turning to `CC(C)C[C@@H](NC(=O)CNC(=O)[C@@H](Cc1ccc(O)cc1)NC(=O)[C@@H](NC(=O)[C@H](NC(=O)[C@@H](N)CO)C(C)C)C(C)C)C(=O)N[C@@H](CCCNC(=N)N)C(=O)O` [SVVYGLR, SVVYGLR (SEQ ID NO.: 3)], the dermal wound healing result in the test on dermal wound is on record as “effective in promoting dermal wound healing”. In the case of `CCCCCCCCCCCCCCCC(=O)NC(C(=O)N[C@H](C(=O)NCC(=O)N[C@@H](C)C(=O)NCC(=O)N[C@@H](C)C(=O)N[C@H](CCC(=O)O)C(=O)N[C@@H](CCC(=O)O)C(=O)N[C@H](CCC(=O)O)C(N)=O)C(C)C)C(C)C` (stereo partly shown) [diluent PA] (Palmitoyl-[ξV]VGAGA[dE]E[dE]-NH2), in the test on full thickness burn, the “wound healing by digital image planimetry, significance vs control” value was “significant at 7 days”. Consider “GGTYSCHFGPLTWVCKPQGG (SEQ ID NO.: 1) [EMP1]”, for which, in the test with erythropoiesis, the erythropoiesis entry was “stimulating erythropoiesis”. Also, in the test with receptor of EPO, the “activation of the EPO receptor” value is “capable of activating the receptor of EPO”.
